Measurements as given in US9603896B2, “Peptide compounds and methods of production and use thereof” (priority 2012, dated 2017).
Square brackets hold non-standard residues; d marks the D form. Peptide text beside a SMILES is read from it. AEEA = NCCOCCOCC(=O)O

Legend:
[1] = system: P. aeruginosa (ATCC® 27853™); assay: Pseudomonas keratitis model in the mouse eye; format: in vivo; conditions: C57/BL mice, topical, concentrations between 0.25 and 0.75 mg/ml
Method: A circular wound was created on the mouse cornea by removing the epithelium and infected with 10^5 colony forming units (CFU) of P. aeruginosa (ATCC® 27853™ (American Type Culture Collection, Manassas, Va.)). Infected wounds were treated with saline (0.9% sodium chloride, vehicle control) or saline containing indicated concentrations of peptide every 15 minutes for 2 hours, then every 30 minutes for 3 hours on the first day. Infected wounds were treated twice on the second day and once on the third day. Mice were killed at 48 hours post-infection, and CFU/eye were quantified. The means were plotted and are representative of 5 to 9 mice per group. Mann Whitney test was performed for each group as compared to the saline control group. *P=0.014.
A circular wound (2 mm) was created on the mouse cornea by removing the epithelium and infecting the wound with 10^5 CFU of P. aeruginosa (ATCC® 27853™ (American Type Culture Collection, Manassas, Va.)). Infected wounds were treated with saline or saline containing indicated concentrations of peptide every 15 minutes for 2 hours, then every 30 minutes for 3 hours on the first day. Infected wounds were treated twice on the second day and once on the third day. Mice were killed at 48 hours post-infection, and the colony forming units per eye (CFU/eye) were quantified. The means are plotted and are representative of 5 to 9 mice per group. Mann Whitney test was performed for each group as compared to the saline control group.
For FIGS. 15-17, in vivo bactericidal activity of the peptides was also investigated using the standard Pseudomonas keratitis model in the mouse eye (FIGS. 15-17). Peptides 120-146QR-5RMP (SEQ ID NO:32), 120-146WH (SEQ ID NO:31), and 120-146WR (SEQ ID NO: 30) were applied topically at doses of 2, 5, 10, and 20 mg/ml to the wounded cornea that had been infected with 10^5 CFU of Pseudomonas aeruginosa. The efficacies of the peptides were compared to treatment with the vehicle control. Mice were euthanized at 48 hours post infection, and the CFU/eye were quantified.

[2] = system: TNF-α release from LPS-stimulated RAW264.7 cells; assay: LPS neutralization: TNF-α release from LPS-stimulated RAW264.7 cells; format: cell-based, mouse; conditions: Pseudomonas LPS
Method: (§1) The well-characterized response of RAW264.7 macrophage cells was used to produce tumor necrosis-factor-alpha (TNF-α) in response to LPS to determine whether the peptides could dampen the release of this cytokine. […] Importantly, pre-treatment (3 hours prior to LPS addition) as well as post-treatment of the RAW264.7 cells (3 hours post LPS addition) with peptide dampened the cytokine release. […] The finding that the novel peptides bind and neutralize the effect of Pseudomonas LPS is of critical importance since this ensures that the novel therapeutic peptide compounds described herein will not only kill the bacteria, but will also neutralize the LPS endotoxin released by the bacteria which plays such an important role in the rapid progression of sepsis.
(§2) BCC01-5RMP (SEQ ID NO:21), BCC02-5RMP (SEQ ID NO:22), and BCC03-5RMP (SEQ ID NO:23) were tested for their ability to bind lipopolysaccharide (LPS) using the limulus amebocyte lysate method (LAL). […] There was no statistical difference in their ability to bind LPS using the LAL technique. The ability of the peptides to neutralize LPS was assessed by determining their ability to attenuate the release of tumor necrosis factor-alpha (TNF-α) from LPS-stimulated RAW264.7 cells (a mouse macrophage cell line). […] No significant differences were observed between the three peptides to neutralize LPS as measured by cytokine release.

[3] = LPS binding, Limulus Amebocyte Lysate (LAL) assay; set-up: species or system Pseudomonas
Method: as §1, §2

[4] = system: Pseudomonas aeruginosa ATCC® 27853™; format: cell-based; set-up: Log reduction of Pseudomonas: dose or concentration left out as unconfirmed; conditions: starting inoculum 1×10^6 CFU/ml; 60 to 180 minute incubation
[5] = system: Pseudomonas clinical isolate B64; assay: BIOSCREEN C™ growth assay, antibiotic and peptide combinations; format: cell-based, Pseudomonas aeruginosa
Method: Cefotaxime (Cefo) and peptide combinations included a constant amount of Cefotaxime (2.81 μg/ml) with suboptimal amounts of peptide (0, 0.34, 1.01, and 3.04 μg/ml).
The peptide and antibiotics were set up in the wells of the microtiter plate at starting ratios of MIC equivalents of antibiotic:peptide at 3:1, 1:1, and 1:3. They were serially diluted to concentrations well below suboptimal/sublethal levels of the antibiotic and peptide. The organism was added (1×10^5 CFU/well), the BIOSCREEN C™ assay (Growth Systems USA, Piscataway, N.J.) was performed, and data was collected over 24 hours.

[6] = system: E. coli ATCC® strain 25922™; format: cell-based, Escherichia coli; set-up: Log reduction of E. coli: dose or concentration left out as unconfirmed; conditions: 25; starting inoculum 1×10^6 CFU/ml; 60 to 180 minute incubation
Summary of the method: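 Bactericidal assay: E. coli ATCC 25922 at a starting inoculum of 1×10^6 CFU/ml exposed to peptide for 60 to 180 min. Surviving CFU then counted, with activity expressed as log reduction in CFU/ml.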

CC[C@H](C)[C@H](NC(=O)[C@H](CC(C)C)NC(=O)[C@H](C)NC(=O)CNC(=O)CNC(=O)[C@H](CO)NC(=O)[C@H](Cc1ccccc1)NC(=O)[C@H](Cc1c[nH]cn1)NC(=O)[C@H](CCCNC(=N)N)NC(=O)CNC(=O)[C@H](CCC(N)=O)NC(=O)[C@H](CC(N)=O)NC(=O)[C@H](CCCNC(=N)N)NC(=O)[C@H](CCCNC(=N)N)NC(=O)[C@H](CCCNC(=N)N)NC(=O)[C@H](CCCNC(=N)N)NC(=O)COCCOCCNC(=O)COCCOCCN)C(=O)N[C@@H](Cc1c[nH]cn1)C(=O)N[C@@H](C)C(=O)N[C@@H](CCCNC(=N)N)C(=O)N[C@@H](Cc1ccccc1)C(=O)N[C@H](C(=O)N[C@@H](CCSC)C(=O)N[C@H](C(=O)N[C@@H](C)C(=O)N[C@@H](C)C(=O)N[C@@H](CO)C(=O)N[C@@H](CS)C(=O)N[C@@H](Cc1ccccc1)C(=O)N[C@@H](CCC(N)=O)C(=O)N[C@@H](CCCNC(=N)N)C(=O)O)[C@@H](C)O)C(C)C [BCC02-5RMP] (H-[AEEA][AEEA]RRRRNQGRHFSGGALIHARFVMTAASCFQR-OH)
bacteria in the eye (CFU/eye) at 48 hours post-infection [1]: effectively killed all bacteria and cured the infection | neutralization of LPS: release of TNF-α [2]: attenuate the release of TNF-α | binding of Pseudomonas LPS [3]: bound Pseudomonas LPS | Log reduction of Pseudomonas [4]: 4 | sensitivity of the bacterium to Cefotaxime on addition of peptide ([5]; 3.04 μg/ml of peptide plus Cefotaxime 2.81 μg/ml, P=0.0143): now sensitive | effect of peptide on the killing effect of Cefotaxime ([5]; 0.34 and 1.0 μg/ml of peptide plus Cefotaxime 2.81 μg/ml): no statistical effect | Log reduction of E. coli [6]: 4
